Experimental findings from US10577363B2, “Substituted piperidine compounds” (EPIZYME, INC., priority 2014, dated 2020) are described below.

In test [1] the target is T1, SMYD3 (Homo sapiens (Human), UniProt Q9H7B4). Kind of test: SMYD3 cell assay (Trimethyl-MEKK2 In-Cell Western in 293T/17 cells). The test is classed as cell-based. The source says:
Trimethyl-MEKK2-in-Cell Western Assay
MEM/Glutamax medium, Optimem Reduced Serum medium, penicillin-streptomycin, 0.05% trypsin and 1×D-PBS were purchased from Life Technologies, Grand Island, N.Y., USA. PBS-10× was purchased from Ambion, Life Technologies, Grand Island, N.Y., USA. PBS with Tween 20 (PBST (10×)) was purchased from KPL, Gaithersburg, Md., USA. Tet System FBS-approved FBS US Source was purchased from Clontech, Mountain View, Calif., USA. Odyssey blocking buffer, 800CW goat anti-rabbit IgG (H+L) antibody, 680CW Goat anti-mouse IgG (H+L) and Licor Odyssey infrared scanner were purchased from Licor Biosciences, Lincoln, Nebr., USA. Tri-methyl-Lysine [A260]-MEKK2 antibody, MEKK2 and SMYD3 plasmids were made at Epizyme. Anti-flag monoclonal mouse antibody was purchased from Sigma, St. Louis, Mo., USA. Methanol was purchased from VWR, Franklin, Mass., USA. 10% Tween 20 was purchased from KPL, Inc., Gaithersburg, Md., USA. Fugene was purchased from Promega, Madison, Wis., USA. The Biotek ELx405 was purchased from BioTek, Winooski, Vt., USA. The multidrop combi was purchased from Thermo Scientific, Waltham, Mass., USA.
Cell Treatment, in Cell Western (ICW) for Detection of Trimethyl-Lysine-MEKK2 and MEKK2.
Plasmids were prepared for delivery to cells by first mixing 1350 μL Opti-MEM with Fugene (81 μL) in a sterile Eppendorf and incubated for five minutes at room temperature (RT). […] Entire volume of Opti-MEM/Fugene mixture was then added to a microfuge tube containing DNA plasmid, mixed and then incubated×15 minutes at RT. […] Medium was then removed, and cells were washed once with PBS in the flask. Trypsin 0.05% (3 mL) was added and cells incubated for three minutes. Room temperature MEM+10% Tet system FBS was added and cells were mixed gently, and counted using the Vi-cell. Cells were seeded at 100,000 cells/mL in 50 μL MEM/10% Tet FBS/Pen/Strep to a 384 well black/clear poly-D-lysine coated plate containing test agent diluted in DMSO. The final top concentration of test compound was 40 μM. […] Plates were incubated×30 minutes at RT in low-airflow area, followed by incubation at 37° C. under 5% CO2 for 24 hours. Medium was aspirated from all wells of assay plates prior to fixation and permeabilization with ice cold (−20° C.) methanol (90 μL/well) for ten minutes. Plates were rinsed with PBS three times on BioTek ELx405. PBS was removed with a final aspiration, and Odyssey blocking buffer (50 μL/well) was added to each well and incubated for one hour at RT. Primary antibody solution was prepared (anti-trimethyl-MEKK2 at 1:600 dilution plus mouse anti-flag antibody at 1:10,000 dilution in diluent (Odyssey Blocking buffer+0.1% Tween 20)) and 20 μL per well was dispensed using the Multidrop Combi. Assay plates were then sealed with foil, and incubated overnight at 4° C. Plates were washed five times with PBS-Tween (1×) on Biotek ELx405 and blotted on paper towel to remove excess reagent.
First, the ratio for each well was determined by:
Each plate included fourteen control wells of DMSO only treatment (Minimum Inhibition) as well as fourteen control wells for maximum inhibition (Background). The average of the ratio values for each control type was calculated and used to determine the percent inhibition for each test well in the plate. Reference compound was serially diluted two-fold in DMSO for a total of nine test concentrations, beginning at 40 μM.
Percent inhibition was calculated (below).
Non-linear regression curves were generated to calculate the IC50 and dose-response relationship using triplicate wells per concentration of compound.

Test [2] has as its target T1, SMYD3. Kind of test: SMYD3 biochemical assay (SPA, 3H-SAM methylation of MEKK2 protein substrate). In outline:
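Tritium incorporation into GST-MEKK2 is counted by scintillation proximity after citric acid bead capture. Native human SMYD3 is preincubated with test compound for 30 min at room temperature at pH 8.0 (Tris-Cl, TCEP, BSG, Tween 20) before 3H-SAM and substrate are added; cold SAM at 100 uM final stops turnover.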

Where [3] appears, read: read-out: SMYD3 Cell IC50 (μM)*.
[4] abbreviates: read-out: SMYD3 Biochem IC50 (μM)*.

T1 sequence (Q9H7B4 whole entry): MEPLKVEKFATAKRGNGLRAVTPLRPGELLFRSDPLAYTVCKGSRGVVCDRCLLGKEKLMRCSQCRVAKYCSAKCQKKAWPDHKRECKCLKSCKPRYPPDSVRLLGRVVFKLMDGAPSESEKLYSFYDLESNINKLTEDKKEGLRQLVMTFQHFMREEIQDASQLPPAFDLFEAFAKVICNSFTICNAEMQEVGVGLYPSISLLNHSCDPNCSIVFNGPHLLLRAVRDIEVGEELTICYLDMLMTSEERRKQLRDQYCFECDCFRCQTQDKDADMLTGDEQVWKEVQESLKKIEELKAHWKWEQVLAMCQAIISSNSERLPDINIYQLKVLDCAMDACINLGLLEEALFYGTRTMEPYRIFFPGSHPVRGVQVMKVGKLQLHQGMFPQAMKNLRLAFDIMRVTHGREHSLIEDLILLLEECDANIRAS

On to `CCc1cc(C(=O)N[C@H]2C[C@H]3CC[C@@H](C2)N3S(=O)(=O)CC2CCNCC2)no1` [Cpd. No. 562, 5-ethyl-N-((1R,3r,5S)-8-(piperidin-4-ylmethylsulfonyl)-8-aza-bicyclo[3.2.1]octan-3-yl)isoxazole-3-carboxamide], for which the IC50 in test [1] (Table 2A, read-out: SMYD3 Cell IC50) stood at 0.0615 µM; in test [2] (Table 2A, read-out: SMYD3 Biochem IC50), 0.0052 µM.

Turning to `CN1CCC(CS(=O)(=O)N2[C@@H]3CC[C@H]2C[C@@H](NC(=O)c2cc(C4CC4)on2)C3)CC1` [Cpd. No. 770, 5-cyclopropyl-N-((1S,3r,5R)-8-((l-methylpiperidin-4-yl)methylsulfonyl)-8-aza-bicyclo[3.2.1]octan-3-yl)isoxazole-3-carboxamide], the figures for the 50% inhibitory concentration (IC50) in test [1] (read-out: SMYD3 Cell IC50*) and in test [2] (read-out: SMYD3 Biochem IC50*) were 0.0192 µM and 0.00088 µM, respectively.

On to `N[C@@H](Cc1ccc(O)c(I)c1)C(=O)N1CCC(NC(=O)c2cc(C3CC3)on2)CC1` [compound 5, (S)-N-(1-(2-amino-3-(4-hydroxy-3-iodophenyl)propanoyl)piperidin-4-yl)-5-cyclopropylisoxazole-3-carboxamide], for which the IC50 in test [1] (setting [3]) was found to be 0.809 µM; in test [2] (setting [4]), 0.116 µM.

With `NC[C@@H](Cc1ccccc1)C(=O)N1CCC(NC(=O)c2cc(C3CC3)on2)CC1` [compound 10, (R)-N-(1-(3-amino-2-benzylpropanoyl)piperidin-4-yl)-5-cyclopropylisoxazole-3-carboxamide], the concentration for half-maximal inhibition (IC50) in test [1] (setting [3]) came to 1.82 µM; in test [2] (setting [4]) it was 0.319 µM.

With `NC[C@H](Cc1ccc(O)c(I)c1)C(=O)N1CCC(NC(=O)c2cc(C3CC3)on2)CC1` [compound 29, (S)-N-(1-(3-amino-2-(4-hydroxy-3-iodobenzyl)propanoyl)piperidin-4-yl)-5-cyclopropylisoxazole-3-carboxamide], the values for the IC50 in test [1] (setting [3]) and in test [2] (setting [4]) were 1.1 µM and 0.0423 µM, respectively.

Take `CC1CN(S(=O)(=O)CCCN)CCC1NC(=O)c1cc(C2CC2)on1` (stereo not drawn) [compound 46, N-(1-((3-aminopropyl)sulfonyl)-3-methylpiperidin-4-yl)-5-cyclopropylisoxazole-3-carboxamide]: the figures for the half-maximal inhibitory concentration (IC50) in test [1] and in test [2] (setting [4]) were 1.02 µM and 0.119 µM, respectively.

For the compound `C[C@H]1C[C@H](NC(=O)c2cc(C3CC3)on2)CCN1C(=O)CC1CCNCC1` [compound 56, 5-cyclopropyl-N-((2S,4R)-2-methyl-1-(2-(piperidin-4-yl)acetyl)piperidin-4-yl)isoxazole-3-carboxamide], the IC50 in test [1] (setting [3]) is 3.18 µM; in test [2] (setting [4]), 0.172 µM.

For `C[C@@H]1C[C@H](NC(=O)c2cc(C3CC3)on2)CCN1C(=O)[C@H]1CC[C@H](N)CC1` [compound 57, N-((2R,4R)-1-((1r,4R)-4-aminocyclohexane-1-carbonyl)-2-methylpiperidin-4-yl)-5-cyclopropylisoxazole-3-carboxamide], the IC50 came out at 0.947 µM in test [1] (setting [3]) and 0.0716 µM in test [2] (setting [4]).

`NC[C@@H](Cc1ccc(O)c(Cl)c1)C(=O)N1CCC(NC(=O)c2cc(C3CC3)on2)CC1` [compound 63, (R)-N-(1-(3-amino-2-(3-chloro-4-hydroxybenzyl)propanoyl)piperidin-4-yl)-5-cyclopropylisoxazole-3-carboxamide]: the results for the IC50 in test [1] (setting [3]) and in test [2] (setting [4]) were 1.44 µM and 0.139 µM, respectively.

Take `C[C@@H]1CN(S(=O)(=O)CCN)CCC1NC(=O)c1cc(C2CC2)on1` (stereo partly drawn) [compound 65, N-((3R)-1-((2-aminoethyl)sulfonyl)-3-methylpiperidin-4-yl)-5-cyclopropylisoxazole-3-carboxamide]: the figures for the IC50 in test [1] (setting [3]) and in test [2] (setting [4]) were 1.05 µM and 0.205 µM, respectively.

As for `C[C@H]1CN(S(=O)(=O)CCN)CCC1NC(=O)c1cc(C2CC2)on1` (stereo partly drawn) [compound 66, N-((3S)-1-((2-aminoethyl)sulfonyl)-3-methylpiperidin-4-yl)-5-cyclopropylisoxazole-3-carboxamide], the results for the IC50 in test [1] (setting [3]) and in test [2] (setting [4]) were 3.72 µM and 0.59 µM, respectively.

Turning to `C[C@@H]1CC(NC(=O)c2cc(C3CC3)on2)CCN1S(=O)(=O)CCN` (stereo partly drawn) [compound 77, N-((2R)-1-((2-aminoethyl)sulfonyl)-2-methylpiperidin-4-yl)-5-cyclopropylisoxazole-3-carboxamide], the half-inhibitory concentration (IC50) in test [1] (setting [3]) was 2.91 µM; in test [2] (setting [4]), 0.633 µM.

Consider `C[C@H]1CC(NC(=O)c2cc(C3CC3)on2)CCN1S(=O)(=O)CCN` (stereo partly drawn) [compound 78, N-((2S)-1-((2-aminoethyl)sulfonyl)-2-methylpiperidin-4-yl)-5-cyclopropylisoxazole-3-carboxamide], for which the IC50 was 0.792 µM in test [1] (setting [3]) and 0.155 µM in test [2] (setting [4]).

`N[C@H]1CC[C@H](C(=O)N2CC3CCC2CC3NC(=O)c2cc(C3CC3)on2)CC1` (stereo partly drawn) [compound 88, N-(2-((1r,4r)-4-aminocyclohexane-1-carbonyl)-2-azabicyclo[2.2.2]octan-5-yl)-5-cyclopropylisoxazole-3-carboxamide]: the IC50 was 2.5 µM in test [1] (setting [3]) and 0.156 µM in test [2] (setting [4]).

As for `CC(C)C1CC(NC(=O)c2cc(C3CC3)on2)CCN1C(=O)[C@H]1CC[C@H](N)CC1` (stereo partly drawn) [compound 99, N-(1-((1r,4r)-4-aminocyclohexane-1-carbonyl)-2-isopropylpiperidin-4-yl)-5-cyclopropylisoxazole-3-carboxamide], the IC50 stood at 3.05 µM in test [1] (setting [3]) and 0.23 µM in test [2] (setting [4]).

Turning to `N[C@H]1CC[C@H](C(=O)N2[C@@H]3CC[C@H]2C[C@@H](NC(=O)c2cc(C4CC4)on2)C3)CC1` [compound 102, N-((1R,3R,5S)-8-((1r,4R)-4-aminocyclohexane-1-carbonyl)-8-azabicyclo[3.2.1]octan-3-yl)-5-cyclopropylisoxazole-3-carboxamide], the IC50 in test [1] (setting [3]) stood at 1.7 µM; in test [2] (setting [4]), 0.106 µM.

With `O=C(NC1CCN(C(=O)CC2CCNCC2)C(Cc2ccccc2)C1)c1cc(C2CC2)on1` (stereo not drawn) [compound 109, N-(2-benzyl-1-(2-(piperidin-4-yl)acetyl)piperidin-4-yl)-5-cyclopropylisoxazole-3-carboxamide], the results for the IC50 in test [1] (setting [3]) and in test [2] (setting [4]) were 1.93 µM and 0.0968 µM, respectively.

In the case of `CC[C@@H]1CC(NC(=O)c2cc(C3CC3)on2)CCN1C(=O)[C@H]1CC[C@H](N)CC1` (stereo partly drawn) [compound 110, N-((2R)-1-((1r,4R)-4-aminocyclohexane-1-carbonyl)-2-ethylpiperidin-4-yl)-5-cyclopropylisoxazole-3-carboxamide], the values for the half-maximal inhibitory concentration (IC50) in test [1] (setting [3]) and in test [2] (setting [4]) were 0.893 µM and 0.0994 µM, respectively.

Consider `C[C@@H]1CC(NC(=O)c2cc(C3CC3)on2)CCN1C(=O)[C@H]1CC[C@H](N)CO1` (stereo partly drawn) [compound 118, N-((2R)-1-((2R,5S)-5-aminotetrahydro-2H-pyran-2-carbonyl)-2-methylpiperidin-4-yl)-5-cyclopropylisoxazole-3-carboxamide], for which the IC50 in test [1] (setting [3]) turned out to be 1.35 µM; in test [2] (setting [4]) it was 0.208 µM.

Turning to `CN[C@H]1CC[C@H](C(=O)N2CCC(NC(=O)c3cc(C4CC4)on3)C[C@H]2C)CC1` (stereo partly drawn) [compound 124, 5-cyclopropyl-N-((2R)-2-methyl-1-((1r,4R)-4-(methylamino)cyclohexane-1-carbonyl)piperidin-4-yl)isoxazole-3-carboxamide], the IC50 in test [1] (setting [3]) is 2.24 µM; in test [2] (setting [4]), 0.274 µM.

As for `C[C@@H]1CN(C(=O)[C@H]2CC[C@H](N)CC2)CC[C@@H]1NC(=O)c1cc(C2CC2)on1` [compound 148, N-((3R,4S)-1-((1r,4R)-4-aminocyclohexane-1-carbonyl)-3-methylpiperidin-4-yl)-5-cyclopropylisoxazole-3-carboxamide], the IC50 in test [1] (setting [3]) was 1.81 µM; in test [2] (setting [4]), 0.282 µM.

As a reminder, the IC50 is the midpoint of a concentration-inhibition curve.
